The structures appear in SMILES notation.

The target in one test is T1, TMEM173 (Homo sapiens, UniProt Q86WV6).
T1 construct: endogenous in cells; host or cells: primary human T cells
The test can be described thus: isoTOP-ABPP and TMT-ABPP cysteine engagement, TMEM173. It counts as binding. As for the experimental part:
(§1) Activated or expanded T cells were re-suspended in RPMI media supplemented with 10% FBS, L-glutamine (2 mM), penicillin (100 U/mL), and streptomycin (100 μg/mL) at 2×10^6 cells/mL. The compounds were added to cells as 1000×DMSO stocks and mixed well with the media by pipetting up and down after addition. The cells were kept at 37° C. in 5% CO2 containing incubators for 3 h (or otherwise specified times), then pelleted by centrifugation (524 g, 5 min, 4° C.), washed with cold PBS (10 mL) and transferred to Eppendorf tubes (1 mL PBS). The cells were pelleted again (524 g, 5 min, 4° C.), flash-frozen, and kept at −80° C. until further analysis.
(§2) Activated or expanded primary human T cells were re-suspended in RPMI (1×10^6 cells/mL) containing 10% fetal bovine serum (FBS), penicillin (100 U/mL), streptomycin ([…]), and L-glutamine (2 mM). […] The resulting proteomes were analyzed by competitive isotopic Tandem Orthogonal Proteolysis Activity-Based Protein Profiling (isoTOP-ABPP). […]
(§3) The heavy/light isoTOP-ABPP ratios (R values) for each unique peptide (DMSO/compound treated) were quantified with in-house CIMAGE software (Weerapana et al., 2010) using default parameters (3 MS1 acquisitions per peak and signal to noise threshold set to 2.5). Site-specific engagement of cysteine residues was assessed by blockade of IA-alkyne probe labeling. […]

In test [1] the test system is CRISPR/Cas9-edited primary human T cells. The test can be described thus: T cell activation after CRISPR/Cas9 target disruption plus compound (FACS CD25/CD69). The test is classed as cell-based. As for the experimental part:
DNA templates consisting of a T7 RNA Polymerase promoter, the ˜20 nt target-specific sequence, and the chimeric sgRNA scaffold were generated for each desired target by overlapping PCR using Q5 High Fidelity Master Mix (New England Biolabs) under the following conditions: 98° C. for 2 min; 50° C. for 10 min; 72° C. for 10 min. Guide RNA templates were used to transcribe guide RNAs using the HiScribe T7 High Yield RNA Synthesis kit (New England Biolabs) according to the manufacturer's instructions. Following in vitro transcription, guides were purified using Monarch RNA Cleanup Kit (New England Biolabs) following manufacturer's instructions.
The Cas9 RNPs were assembled before transfection using the ArciTect™ Cas9-eGFP Nuclease (StemCell) with the T7 transcribed RNAs at a molar ratio of 1:3 in Buffer T. For each target of interest, the genome was tiled with 3 unique guide RNAs. Before the transfection, primary T cells were preactivated on αCD3/αCD28-precoated plates in complete RPMI medium supplemented with 100 U/mL IL2 for 48 h. The T cells were then washed with PBS and resuspended in Buffer T (10×10^6 cells/mL) and the Cas9 RNP transfections were performed using the Neon Transfection system (ThermoFisher). Following the Cas9 RNP transfection, T cells were cultured in RPMI supplemented with 50 U/mL IL2 for 7 days. […]

A further test has as its target BIRC2 (Homo sapiens, UniProt Q13490). The test can be described thus: isoTOP-ABPP and TMT-ABPP cysteine engagement, BIRC2. More on the design: endogenous in cells; host or cells: primary human T cells. The test is classed as binding. The method, then:
as §1, §2, §3

T1 sequence (Q86WV6 whole entry H232R): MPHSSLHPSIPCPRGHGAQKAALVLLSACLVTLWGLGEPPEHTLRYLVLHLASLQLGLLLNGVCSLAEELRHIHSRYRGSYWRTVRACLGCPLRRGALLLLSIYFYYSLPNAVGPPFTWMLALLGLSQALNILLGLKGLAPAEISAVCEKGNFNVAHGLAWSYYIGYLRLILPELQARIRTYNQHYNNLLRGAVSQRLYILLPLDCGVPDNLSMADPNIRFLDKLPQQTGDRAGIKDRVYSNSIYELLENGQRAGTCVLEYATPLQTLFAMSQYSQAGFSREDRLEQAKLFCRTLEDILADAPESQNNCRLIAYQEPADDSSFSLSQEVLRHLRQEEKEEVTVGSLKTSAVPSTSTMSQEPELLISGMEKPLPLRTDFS
BIRC2, sequence (Q13490 whole entry): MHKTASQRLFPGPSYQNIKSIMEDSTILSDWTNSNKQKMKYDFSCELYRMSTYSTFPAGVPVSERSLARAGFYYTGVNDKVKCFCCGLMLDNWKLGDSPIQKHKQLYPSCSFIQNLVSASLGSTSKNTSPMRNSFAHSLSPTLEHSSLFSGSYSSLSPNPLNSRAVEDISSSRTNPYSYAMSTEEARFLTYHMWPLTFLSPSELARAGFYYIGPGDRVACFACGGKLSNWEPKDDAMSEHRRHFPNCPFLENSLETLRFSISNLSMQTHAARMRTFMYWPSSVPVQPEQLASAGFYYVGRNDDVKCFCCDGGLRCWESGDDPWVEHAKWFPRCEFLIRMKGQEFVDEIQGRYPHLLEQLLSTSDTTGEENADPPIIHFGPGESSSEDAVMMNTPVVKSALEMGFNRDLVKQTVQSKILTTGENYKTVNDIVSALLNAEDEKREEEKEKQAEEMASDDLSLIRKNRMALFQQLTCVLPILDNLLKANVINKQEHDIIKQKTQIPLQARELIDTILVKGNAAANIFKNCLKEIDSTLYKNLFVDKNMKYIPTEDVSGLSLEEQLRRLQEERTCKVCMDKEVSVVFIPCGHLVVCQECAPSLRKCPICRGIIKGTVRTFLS

With `C=CC(=O)N(Cc1cccc(Cl)c1Cl)c1ccc(Oc2ccccc2)c(C(F)(F)F)c1` [BPK-21], the “labeling of C91 of TMEM173” value on TMEM173 is recorded as “direct labeling of C91”. Moreover, the “T cell activation in sgERCC3 cells” value in test [1] (CRISPR/Cas9 disruption of ERCC3) is listed as “only a modest further reduction in activation”.
With `C=CC(=O)N(Cc1cccc(Cl)n1)c1ccc(C(=O)Nc2ccccc2)nc1` [BPK-25], the “labeling of C91 of TMEM173” value on TMEM173 is listed as “direct labeling of C91”.
For `COC(=O)/C=C/C(=O)OC` [DMF, reference compound], the “engagement of C45 of BIRC2” value on BIRC2 was “engaged”.
Take `O=C(CCl)N1CCN(S(=O)(=O)c2ccc(-c3ccncc3)cc2)CC1` [EV-3]: the “T cell activation in BIRC2/BIRC3-null cells” value in test [1] (CRISPR/Cas-9 disruption of BIRC2 and BIRC3) is reported as “further decreased T cell activation”. Besides, the “engagement of C45 of BIRC2” value on BIRC2 is listed as “engaged”.

Source of the values: patent US20240131032A1, “AN ACTIVITY-GUIDED MAP OF ELECTROPHILE-CYSTEINE INTERACTIONS IN PRIMARY HUMAN IMMUNE CELLS” (The Scripps Research Institute, priority 2019, published 2024).
